Test results published in PMC3814719, “Structure of a bacterial putative acetyltransferase defines the fold of the human O-GlcNAcase C-terminal domain” (Open Biology, 2013).
pKd: −log10 of the molar value.

Target: T1, OgpAT (Oceanicola granulosus, UniProt Q2CEE2)
T1 construct: gene OG2516_04134; full-length OgpAT, expressed as GST fusion from pGEX-6P-1 in E. coli BL21(DE3) pLysS, GST cut off with PreScission protease; 206 residues in crystal; monomer; biotinylated for SPR; gene immediately downstream of OgOGA
Test: surface plasmon resonance, biotinylated protein on streptavidin chip, […] equilibrium fit
Format: binding
Conditions: read-out: OgpAT, wt

T1 sequence (Q2CEE2 whole entry, the tested form may be a part): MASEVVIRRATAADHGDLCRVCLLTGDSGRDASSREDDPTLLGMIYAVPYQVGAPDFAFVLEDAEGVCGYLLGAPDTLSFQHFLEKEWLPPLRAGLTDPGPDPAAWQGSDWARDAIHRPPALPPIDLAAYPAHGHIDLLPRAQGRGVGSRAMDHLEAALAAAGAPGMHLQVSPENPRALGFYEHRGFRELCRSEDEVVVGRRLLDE

pKd: 5.08
SMILES: CC(=O)SCCNC(=O)CCNC(=O)[C@H](O)C(C)(C)COP(=O)(O)OP(=O)(O)OC[C@H]1O[C@@H](n2cnc3c(N)ncnc32)[C@H](O)[C@@H]1OP(=O)(O)O [AcCoA]
